The source of these data is ChEMBL document CHEMBL3046549, “Comparative quantitative structureactivity relationship study of some 1-aminocyclopentyl-3-carboxyamides as CCR2 inhibitors using stepwise MLR, FA-MLR, and GA-PLS” (Med Chem Res, 2012).

Molecules are shown by their SMILES.

Chain of C-C chemokine receptor type 2 (P41597 whole entry): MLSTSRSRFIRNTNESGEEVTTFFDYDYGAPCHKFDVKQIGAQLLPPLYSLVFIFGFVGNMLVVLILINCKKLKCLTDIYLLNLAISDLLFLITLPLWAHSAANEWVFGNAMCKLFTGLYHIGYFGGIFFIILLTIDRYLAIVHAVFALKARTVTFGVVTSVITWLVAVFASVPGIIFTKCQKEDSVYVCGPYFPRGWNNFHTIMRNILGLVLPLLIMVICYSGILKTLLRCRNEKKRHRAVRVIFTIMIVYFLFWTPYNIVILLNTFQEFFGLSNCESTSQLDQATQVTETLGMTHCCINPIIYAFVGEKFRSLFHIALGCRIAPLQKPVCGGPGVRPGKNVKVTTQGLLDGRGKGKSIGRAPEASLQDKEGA

The test concerns the target C-C chemokine receptor type 2 (Homo sapiens, UniProt P41597). As to the kind of experiment: Antagonist activity at CCR2 (unknown origin).
The term IC50 denotes the midpoint of a concentration-inhibition curve. Read a low IC50 as higher potency. On to `CC1COCCC1N[C@@H]1CC[C@@](C(=O)NCc2cc(C(F)(F)F)cc(C(F)(F)F)c2)(C(C)C)C1` (stereo partly specified), for which it took 239 nM to reach half-maximal inhibition (IC50).

The compound `CC(C)[C@]1(C(=O)NCc2cc(C(F)(F)F)cc(C(F)(F)F)c2)CC[C@@H](NC2CCOCC2F)C1` (stereo partly specified) showed an IC50 of 51.1 nM.

Consider `CC(C)[C@]1(C(=O)NCc2cc(C(F)(F)F)cc(C(F)(F)F)c2)CC[C@@H](NC2CCCOC2)C1` (stereo partly specified), for which half-maximal inhibition (IC50) was put at 4.6 nM.

Turning to `CC1CC(N[C@@H]2CC[C@@](C(=O)NCc3cc(C(F)(F)F)cc(C(F)(F)F)c3)(C(C)C)C2)CCO1` (stereo partly specified), inhibition was half-maximal at 766 nM (IC50).

As to `CC(C)[C@]1(C(=O)NCc2cc(C(F)(F)F)cc(C(F)(F)F)c2)CC[C@@H](NC2CCOCC2)C1`, 56 nM corresponded to half-maximal inhibition (IC50).

`CC(C)[C@]1(C(=O)NCc2cc(C(F)(F)F)cc(C(F)(F)F)c2)CC[C@@H](NC2CCOCC2(C)C)C1` (stereo partly specified) showed an IC50 of 28 nM.

For the compound `CC(C)[C@]1(C(=O)NCc2cc(C(F)(F)F)cc(C(F)(F)F)c2)CC[C@@H](NC2CCOCC2C(F)(F)F)C1` (stereo partly specified), the IC50 is 6 nM.

In turn, `CC(C)[C@]1(C(=O)NCc2cc(C(F)(F)F)cc(C(F)(F)F)c2)CC[C@@H](NC2CCOCC2(O)C(F)(F)F)C1` (stereo partly specified) gave an IC50 of 5.5 nM.

As to `CC(C)[C@]1(C(=O)NCc2cc(C(F)(F)F)cc(C(F)(F)F)c2)CC[C@@H](NC2CCSC2)C1` (stereo partly specified), the IC50 was 22 nM.

With `CC(C)[C@]1(C(=O)NCc2cc(C(F)(F)F)cc(C(F)(F)F)c2)CC[C@@H](NC2CCc3ccccc3C2)C1` (stereo partly specified), the IC50 was 187 nM.

The compound `CC(C)[C@]1(C(=O)NCc2cc(C(F)(F)F)cc(C(F)(F)F)c2)CC[C@@H](NC2CCOCC2C2CC2)C1` (stereo partly specified) showed an IC50 of 7.8 nM.

With `CCC1COCCC1N[C@@H]1CC[C@@](C(=O)NCc2cc(C(F)(F)F)cc(C(F)(F)F)c2)(C(C)C)C1` (stereo partly specified), the IC50 is 1.5 nM.

`CC(C)[C@]1(C(=O)NCc2cc(C(F)(F)F)cc(C(F)(F)F)c2)CC[C@@H](NC2CCOCC2O)C1` (stereo partly specified) showed an IC50 of 123 nM. Compared with the last compound, the IC50 is about 82-fold higher.

Compound `CC1COCC(C)C1N[C@@H]1CC[C@@](C(=O)NCc2cc(C(F)(F)F)cc(C(F)(F)F)c2)(C(C)C)C1` (stereo partly specified) gave an IC50 of 230 nM. Against the preceding compound, the IC50 is about 1.9-fold higher.

`CCCC1COCCC1N[C@@H]1CC[C@@](C(=O)NCc2cc(C(F)(F)F)cc(C(F)(F)F)c2)(C(C)C)C1` (stereo partly specified) showed an IC50 of 3 nM.

With `CC(C)[C@]1(C(=O)NCc2cc(C(F)(F)F)cc(C(F)(F)F)c2)CC[C@@H](NC2CCSCC2)C1`, it took 36 nM to reach half-maximal inhibition (IC50).
